Measured values taken from patent US7722893B2, “Use of substitute 2,4-bis (alkylamino) pyrimidines or quinzolines as antimicrobials” (Ciba Specialty Chemicals Corporation, priority 2003, dated 2010).

Tests used:
[1] = test system: Aspergillus niger ATCC 6275; test: MIC of a broadened organism spectrum (agar); format: cell-based; settings: Sabouraud 4% glucose agar, 3 days at 28° C.; for MIC: ATCC6275, 72 h, read-out: minimum inhibiting concentration MIC
From the text: (§1) Determination of the Minimum Inhibiting Concentration MIC [ppm] of a Broadened Organism Spectrum
(§2) • Medium: Casein/soybean flour peptone agar (Merck) • *Sabouraud 4% glucose agar (Merck) • Dilution medium: sterile 0.85% NaCl solution • Test organisms: Staphylococcus aureus ATCC 6853 and 9144 • Staphylococcus epidermidis ATCC 12228 • C. xerosis ATCC 373 ** • C. minutissimum ATCC 23348 • Proplonibacterium acnes ATCC 6919 • Escherichia coli ATCC 10536 and NCTC 8196 • Proteus vulgaris ATCC 6896 • Klebsiella pneumoniae ATCC 4352 • Salmonella choleraesuis ATCC 9184 • Pseudomonas aeruginosa ATCC 15442 • *Candida albicans ATCC 10231 • *Aspergillus niger ATCC 6275 • Incubation: 24 hours at 37° C. • *3 days at 28° C. • Test solution: 1% stock solutions of all the test substances in a suitable solvent are prepared and diluted in serial dilutions (1:10, 1:100 and 1:1000 dilution), where possible diluted to such an extent that the end concentrations in agar are from 500 ppm to 10 ppm. Test principle:
(§3) 0.3 ml of the dilution stage in question is mixed with 15 ml of still-liquid nutrient medium.
(§4) When the nutrient substrate has solidified, 10 μl portions of a suitable organism dilution of the test strains in 0.85% NaCl solution are spotted onto the agar medium: […]

[2] = test system: C. minutissimum ATCC 23348; test: MIC of a broadened organism spectrum (agar); format: cell-based; settings: 3 days incubation (Table 3a); for MIC: Corynebacterium minutissimum, ATCC23348, 72 h, read-out: minimum inhibiting concentration MIC
From the text: as §1, §2, §3, §4

C. xerosis ATCC 373 = test: MIC of a broadened organism spectrum (agar); format: cell-based; settings: 3 days incubation; for MIC: Corynebacterium xerosis, ATCC373, 72 h, read-out: minimum inhibiting concentration MIC
From the text: as §1, §2, §3, §4

[3] = test system: Candida albicans ATCC 10231; test: MIC of a broadened organism spectrum (agar); format: cell-based; settings: Sabouraud 4% glucose agar, 3 days at 28° C.; for MIC: ATCC10231, 72 h, read-out: minimum inhibiting concentration MIC
From the text: as §1, §2, §3, §4

[4] = test system: Escherichia coli ATCC 10536; test: MIC of a broadened organism spectrum (agar); format: cell-based; settings: for MIC: ATCC10536, 24 hours at 37° C., read-out: minimum inhibiting concentration MIC
From the text: as §1, §2, §3, §4

[5] = test system: Escherichia coli NCTC 8196; test: MIC of a broadened organism spectrum (agar); format: cell-based; settings: for MIC: NCTC8196, 24 hours at 37° C., read-out: minimum inhibiting concentration MIC
From the text: as §1, §2, §3, §4

[6] = test system: Klebsiella pneumoniae ATCC 4352; test: MIC of a broadened organism spectrum (agar); format: cell-based; settings: for MIC: ATCC4352, 24 hours at 37° C., read-out: minimum inhibiting concentration MIC
From the text: as §1, §2, §3, §4

[7] = test system: Propionibacterium acnes ATCC 6919; test: MIC of a broadened organism spectrum (agar); format: cell-based; settings: 3 days incubation under anaerobic conditions; for MIC: Cutibacterium acnes, ATCC6919, 72 h, read-out: minimum inhibiting concentration MIC
From the text: as §1, §2, §3, §4

[8] = test system: Proteus vulgaris ATCC 6896; test: MIC of a broadened organism spectrum (agar); format: cell-based; settings: for MIC: ATCC6896, 24 hours at 37° C., read-out: minimum inhibiting concentration MIC
From the text: as §1, §2, §3, §4

[9] = test system: Pseudomonas aeruginosa ATCC 15442; test: MIC of a broadened organism spectrum (agar); format: cell-based; settings: for MIC: ATCC15442, 24 hours at 37° C., read-out: minimum inhibiting concentration MIC
From the text: as §1, §2, §3, §4

[10] = test system: Salmonella choleraesuis ATCC 9184; test: MIC of a broadened organism spectrum (agar); format: cell-based; settings: 24 hours at 37° C.; for MIC: Salmonella enterica, read-out: minimum inhibiting concentration MIC
From the text: as §1, §2, §3, §4

[11] = test system: Staphylococcus aureus ATCC 6538; test: MIC of a broadened organism spectrum (agar); format: cell-based; settings: for MIC: ATCC6538, 24 hours at 37° C., read-out: minimum inhibiting concentration MIC
From the text: as §1, §2, §3, §4

[12] = test system: Staphylococcus aureus ATCC 9144; test: MIC of a broadened organism spectrum (agar); format: cell-based; settings: for MIC: ATCC9144, 24 hours at 37° C., read-out: minimum inhibiting concentration MIC
From the text: as §1, §2, §3, §4

[13] = test system: Staphylococcus epidermidis ATCC 12228; test: MIC of a broadened organism spectrum (agar); format: cell-based; settings: for MIC: ATCC12228, 24 hours at 37° C., read-out: minimum inhibiting concentration MIC
From the text: as §1, §2, §3, §4

S. gordonii ATCC 10558 = test: MIC of a broadened organism spectrum: oral organisms; format: cell-based, Streptococcus gordonil; settings: for MIC: Streptococcus gordonii, ATCC10558, 24 hours aerobic with 10% CO2, read-out: minimum inhibiting concentration MIC, oral organisms
From the text: (§5) Determination of the Minimum Inhibiting Concentration MIC (ppm) of a Broadened Organism Spectrum: Oral Organisms
(§6) • Medium: thioglycolate bouillon with hemin and menadione Columbia bouillon with hemin and menadione for P. gingivalis and P. nigrescens • Dilution medium: the appropriate amount of the substances was pipetted directly into the medium. • Test organisms: Actinobacillus actinomycetemcomitans ATCC 43718 • Streptococcus gordonil ATCC 10558 • Streptococcus mutans ATCC 33402 • Actinomyces viscosus ATCC 43146 • Fusobacterium nucleatum subsp. polymorphum ATCC 10953 • Porphyromonas gingivalis ATCC 33277 • Prevotella nigrescens ATCC 33563 • Incubation: 7-10 days at 37° C anaerobic, or 24 hours aerobic with 10% CO2 for Streptococci and A. actinomycetemcomitans • Test solution: Stock solutions of all the test substances in ethanol at 1500 ppm (w/w) are used. Test Principle:
(§7) Bacteria are removed from blood agar plates using cotton wool buds and a suitable optical density (McFarland 0.5) is adjusted in an appropriate medium; that solution is used undiluted for F. nucleatum and P. nigrescens, and in a dilution of 1:20 for the other strains. 0.1 ml of bacterial culture is added per 2 ml of active ingredient solution and incubation is carried out as described above.

[14] = test system: Actinobacillus actinomycetemcomitans ATCC 43718; test: as above; format: cell-based; settings: A. actinomycetemcomitans ATCC 43718, 24 hours aerobic with 10% CO2; for MIC: Aggregatibacter actinomycetemcomitans, ATCC43718, read-out: minimum inhibiting concentration MIC, oral organisms
From the text: as §5, §6, §7

[15] = test system: Actinomyces viscosus ATCC 43146; test: as above; format: cell-based; settings: A. viscosus ATCC 43146, 7-10 days at 37° C anaerobic; for MIC: Actinomyces viscosus, ATCC43146, read-out: minimum inhibiting concentration MIC, oral organisms
From the text: as §5, §6, §7

[16] = test system: Fusobacterium nucleatum subsp. polymorphum ATCC 10953; test: as above; format: cell-based; settings: F. nucleatum subsp. polymorphum ATCC 10953, 7-10 days at 37° C anaerobic; for MIC: Fusobacterium nucleatum, ATCC10953, read-out: minimum inhibiting concentration MIC, oral organisms
From the text: as §5, §6, §7

[17] = test system: Prevotella nigrescens ATCC 33563; test: as above; format: cell-based; settings: P. nigrescens ATCC 33563, Columbia bouillon, 7-10 days at 37° C anaerobic; for MIC: Prevotella nigrescens, ATCC33563, read-out: minimum inhibiting concentration MIC, oral organisms
From the text: as §5, §6, §7

[18] = test system: Streptococcus mutans ATCC 33402; test: as above; format: cell-based; settings: S. mutans ATCC 33402, 24 hours aerobic with 10% CO2; for MIC: Streptococcus mutans, ATCC33402, read-out: minimum inhibiting concentration MIC, oral organisms
From the text: as §5, §6, §7

P. gingivalis ATCC 3277 = test: as above; format: cell-based, Porphyromonas gingivalis; settings: 7-10 days at 37° C anaerobic; for MIC: Porphyromonas gingivalis, ATCC3277, Columbia bouillon, read-out: minimum inhibiting concentration MIC, oral organisms
From the text: as §5, §6, §7

CCCCCCCCNc1cc(C)nc(NCCCCCCCC)n1 [PY5, N,N′-bis(2,4-dioctylamino)-6-methylpyrimidine]
minimum inhibiting concentration MIC [1]: >1000 ppm
minimum inhibiting concentration MIC [2]: 3.91 ppm
minimum inhibiting concentration MIC (C. xerosis ATCC 373): 7.81 ppm
minimum inhibiting concentration MIC [3]: >1000 ppm
minimum inhibiting concentration MIC ([4]; 24 hours at 37° C.): >1000 ppm
minimum inhibiting concentration MIC ([5]; 24 hours at 37° C.): >1000 ppm
minimum inhibiting concentration MIC ([6]; 24 hours at 37° C.): 250 ppm
minimum inhibiting concentration MIC [7]: 3.91 ppm
minimum inhibiting concentration MIC ([8]; 24 hours at 37° C.): >1000 ppm
minimum inhibiting concentration MIC ([9]; 24 hours at 37° C.): >1000 ppm
minimum inhibiting concentration MIC [10]: >1000 ppm
minimum inhibiting concentration MIC ([11]; 24 hours at 37° C.): 3.91 ppm
minimum inhibiting concentration MIC ([12]; 24 hours at 37° C.): 3.91 ppm
minimum inhibiting concentration MIC ([13]; 24 hours at 37° C.): 3.91 ppm
minimum inhibiting concentration MIC, oral organisms (S. gordonii ATCC 10558; 24 hours aerobic with 10% CO2): 15 ppm
minimum inhibiting concentration MIC, oral organisms [14]: >15 ppm
minimum inhibiting concentration MIC, oral organisms [15]: 3.75 ppm
minimum inhibiting concentration MIC, oral organisms [16]: >15 ppm
minimum inhibiting concentration MIC, oral organisms [17]: 15 ppm
minimum inhibiting concentration MIC, oral organisms [18]: 3.75 ppm
minimum inhibiting concentration MIC, oral organisms (P. gingivalis ATCC 3277; Columbia bouillon): 7.5 ppm

Cc1cc(NCc2ccccc2)nc(NCc2ccccc2)n1 [PY8, N,N′-Bis(2,4-dibenzylamino)-6-methylpyrimidine]
MIC [1]: 250 µg/mL
MIC [2]: 15.6 µg/mL
MIC (C. xerosis ATCC 373): 7.8 µg/mL
MIC [3]: 250 µg/mL
MIC [4]: 62.5 µg/mL
MIC [5]: 31.2 µg/mL
MIC [6]: 15.6 µg/mL
MIC [7]: 31.2 µg/mL
MIC [8]: > 500 µg/mL
MIC [9]: > 500 µg/mL
MIC [10]: 62.5 µg/mL
MIC [11]: 31.2 µg/mL
MIC [12]: 31.2 µg/mL
MIC [13]: 31.2 µg/mL
MIC (S. gordonii ATCC 10558): > 15 µg/mL
MIC [14]: > 15 µg/mL
MIC [15]: 3.75 µg/mL
MIC [16]: 15 µg/mL
MIC [17]: 15 µg/mL
MIC [18]: > 15 µg/mL
MIC (P. gingivalis ATCC 3277): 15 µg/mL

Cc1cc(NCCc2ccccc2)nc(NCCc2ccccc2)n1 [PY9, N,N′-Bis(2,4-diphenylethylamino)-6-methylpyrimidine]
MIC [1]: 250 µg/mL
MIC [2]: 3.9 µg/mL
MIC (C. xerosis ATCC 373): 1.95 µg/mL
MIC [3]: 62.5 µg/mL
MIC [4]: 250 µg/mL
MIC [5]: 15.6 µg/mL
MIC [6]: 7.8 µg/mL
MIC [7]: 7.8 µg/mL
MIC [8]: > 500 µg/mL
MIC [9]: > 500 µg/mL
MIC [10]: 250 µg/mL
MIC [11]: 7.8 µg/mL
MIC [12]: 7.8 µg/mL
MIC [13]: 7.8 µg/mL
MIC (S. gordonii ATCC 10558): 15 µg/mL
MIC [14]: > 15 µg/mL
MIC [15]: 3.75 µg/mL
MIC [16]: 15 µg/mL
MIC [17]: 7.5 µg/mL
MIC [18]: 15 µg/mL
MIC (P. gingivalis ATCC 3277): 7.5 µg/mL

CCCCCCCCNc1nc(C)cc(N2CCCC2)n1 [PY44]
MIC [1]: 500 µg/mL
MIC [2]: 3.9 µg/mL
MIC (C. xerosis ATCC 373): 3.9 µg/mL
MIC [3]: 250 µg/mL
MIC [4]: 62.5 µg/mL
MIC [5]: 15.6 µg/mL
MIC [6]: 7.8 µg/mL
MIC [7]: 3.9 µg/mL
MIC [8]: > 500 µg/mL
MIC [9]: > 500 µg/mL
MIC [10]: 62.5 µg/mL
MIC [11]: 7.8 µg/mL
MIC [12]: 7.8 µg/mL
MIC [13]: 3.9 µg/mL
MIC (S. gordonii ATCC 10558): 7.5 µg/mL
MIC [14]: > 15 µg/mL
MIC [15]: 3.8 µg/mL
MIC [16]: 3.8 µg/mL
MIC [17]: 3.8 µg/mL
MIC [18]: 7.5 µg/mL
MIC (P. gingivalis ATCC 3277): 3.8 µg/mL

CCCCCCCCNc1nc(C)c(CCCCCC)c(NCCOCCOCCN)n1 [PY55]
MIC [1]: 500 µg/mL
MIC [2]: 3.9 µg/mL
MIC (C. xerosis ATCC 373): 3.9 µg/mL
MIC [3]: 125 µg/mL
MIC [4]: 7.8 µg/mL
MIC [5]: 7.8 µg/mL
MIC [6]: 15.6 µg/mL
MIC [7]: 3.9 µg/mL
MIC [8]: > 500 µg/mL
MIC [9]: > 500 µg/mL
MIC [10]: 7.8 µg/mL
MIC [11]: 7.8 µg/mL
MIC [12]: 3.9 µg/mL
MIC [13]: 7.8 µg/mL
MIC (S. gordonii ATCC 10558): 3.8 µg/mL
MIC [14]: 15 µg/mL
MIC [15]: 3.8 µg/mL
MIC [16]: 7.5 µg/mL
MIC [17]: 3.8 µg/mL
MIC [18]: 7.5 µg/mL
MIC (P. gingivalis ATCC 3277): 3.8 µg/mL
